The test system of experiment [1] is CV-1. Nature of the experiment: Inhibition of RXRalpha transcriptional activity in african green monkey CV1 cells co-expressing with TREpal-tkCAT at 10 uM by reporter gene assay. Format: cell-based. As to conditions: Chlorocebus aethiops.
The test system of experiment [2] is CV-1. Nature of the experiment: Inhibition of RXRalpha transcriptional activity in african green monkey CV1 cells co-expressing with TREpal-tkCAT by reporter gene assay. It is filed as cell-based. As to conditions: Chlorocebus aethiops.

Molecules are shown by their SMILES. The source made the active and inactive calls. The rule behind the calls is not given here.

On to `COc1ccc(O)c2c(=O)c3cc(O)ccc3oc12`, for which, in the experiment with CV-1 [1], the result was Active.
On to `COc1c(O)ccc2oc3c(O)ccc(O)c3c(=O)c12`, for which the outcome in the experiment with CV-1 [1] was Active. In addition, the Activity entry with CV-1 [2] was “Dose-dependent effect”.
For `CC(C)=CCc1c(O)c(CC=C(C)C)c2oc3cc(O)c(O)cc3c(=O)c2c1O`, in the experiment with CV-1 [1], the result was Active.
Still for that read-out and setting: as for `CC(C)=CCC/C(C)=C/Cc1c(O)c(O)cc2c(=O)c3c(O)c(CC=C(C)C)c(O)cc3oc12`, the entry is “Active”; as for `COc1cc2c(=O)c3c(O)cc(O)cc3oc2cc1O`, “Active”.
Same read-out and setting: the value for `COc1cc2oc3cc(O)c(O)c(C/C=C(\C)CCC=C(C)C)c3c(=O)c2c(O)c1C/C=C(\C)CCC=C(C)C` was “Active”.
On to `COc1c(O)ccc2oc3cccc(O)c3c(=O)c12`, for which the outcome with CV-1 [1] was Active. The Activity entry in the experiment with CV-1 [2] is “Dose-dependent effect”.
The like results for `COc1cc2oc3cc(O)c(O)c(CCC(C)(C)O)c3c(=O)c2c(O)c1CC=C(C)C` were, in that order, “Active” and “Dose-dependent effect”.
With `CC(C)=CCC/C(C)=C/Cc1c(O)c(CC=C(C)C)c(O)c2c(=O)c3cc(O)c(O)cc3oc12`, the outcome in the experiment with CV-1 [1] was Active.

The values above are taken from ChEMBL document CHEMBL1177755, “Bioactive xanthones from the stems of Cratoxylum formosum ssp. pruniflorum” (J Nat Prod, 2010).
